Molecular target: GCase enzyme (Cerezyme®, recombinant human GCase) (Homo sapiens, UniProt P04062, R534H)
Details: read-out: GCase Ki; from IC50 by Cheng-Prusoff equation, GCase Km 7.9 mM, pH 7.0

Sequence of GCase enzyme (Cerezyme®, recombinant human GCase) (P04062 40-536 R534H limits assumed): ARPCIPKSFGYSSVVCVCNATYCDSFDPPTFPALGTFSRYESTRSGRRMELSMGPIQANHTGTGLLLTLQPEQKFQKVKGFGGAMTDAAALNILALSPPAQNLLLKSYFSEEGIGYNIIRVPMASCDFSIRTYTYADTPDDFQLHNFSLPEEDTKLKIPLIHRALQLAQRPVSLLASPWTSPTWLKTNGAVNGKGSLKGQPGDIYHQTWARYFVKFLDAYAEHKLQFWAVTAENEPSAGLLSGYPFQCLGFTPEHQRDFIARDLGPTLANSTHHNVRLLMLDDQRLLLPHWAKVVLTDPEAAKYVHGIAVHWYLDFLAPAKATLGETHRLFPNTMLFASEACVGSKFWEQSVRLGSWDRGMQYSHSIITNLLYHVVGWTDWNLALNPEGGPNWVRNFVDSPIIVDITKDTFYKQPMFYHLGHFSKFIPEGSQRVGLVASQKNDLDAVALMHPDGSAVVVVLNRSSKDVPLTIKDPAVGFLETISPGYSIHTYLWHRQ

| Ki [nM] | SMILES |
| --- | --- |
| 2.6 | C[C@@H]1[C@@H](O)[C@H](O)CNC12CC2 [Example 1, (6R,7R,8S)-8-methyl-4-azaspiro[2.5]octane-6,7-diol] |
| 8 | O[C@H]1[C@H](O)CNC2(CC2)[C@@H]1C(F)F [Example 4, (6R,7R,8S)-8-(difluoromethyl)-4-azaspiro[2.5]octane-6,7-diol] |
